Source: US4792568A, “Aryl pyrroles as useful antiallergy compounds” (Rorer Pharmaceutical Corporation, priority 1986, dated 1988)

How the values were obtained:
5-lipoxygenase = molecular target: T1, 5-lipoxygenase (Rattus norvegicus, UniProt P12527); test: Inhibition of 5-lipoxygenase (5-HETE formation from [14C]-arachidonic acid in rat neutrophils, Calcium Ionophore A23187); format: cell-based; details: 3 minutes at 30° C.; for IC50: net 5-HETE, read-out: concentration required for inhibition of the 5-lipoxygenase (5-LOX/I50)
T1 construct: A suspension of rat neutrophils in buffer; endogenous in cells; host or cells: rat neutrophils
T1 sequence (P12527 1-673): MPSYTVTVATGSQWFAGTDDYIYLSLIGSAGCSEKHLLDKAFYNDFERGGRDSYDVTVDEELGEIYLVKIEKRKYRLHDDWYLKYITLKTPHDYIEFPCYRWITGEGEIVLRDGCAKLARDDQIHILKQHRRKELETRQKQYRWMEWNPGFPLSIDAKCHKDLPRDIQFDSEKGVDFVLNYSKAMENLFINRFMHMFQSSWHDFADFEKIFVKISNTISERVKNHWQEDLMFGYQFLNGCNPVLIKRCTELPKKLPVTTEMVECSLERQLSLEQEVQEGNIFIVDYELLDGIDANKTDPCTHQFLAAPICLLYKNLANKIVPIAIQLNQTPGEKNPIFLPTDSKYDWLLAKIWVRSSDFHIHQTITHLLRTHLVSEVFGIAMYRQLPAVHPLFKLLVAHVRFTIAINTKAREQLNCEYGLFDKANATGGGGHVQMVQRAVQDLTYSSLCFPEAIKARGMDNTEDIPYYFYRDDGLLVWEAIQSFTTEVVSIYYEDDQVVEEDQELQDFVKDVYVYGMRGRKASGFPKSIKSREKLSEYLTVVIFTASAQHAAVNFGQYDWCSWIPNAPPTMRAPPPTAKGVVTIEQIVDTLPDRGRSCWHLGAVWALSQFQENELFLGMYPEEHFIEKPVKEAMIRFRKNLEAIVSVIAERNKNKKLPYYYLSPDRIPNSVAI
Experimental: The following protocol describes an assay to detect inhibitors of the lipoxygenase. Such inhibitors are believed to be capable of modulating the biosynthesis of the leukotrienes, a property believed to be useful in treating asthma and inflammatory disease states.
A suspension of rat neutrophils in buffer is incubated for 3 minutes at 30° C. with [^14 C]-arachidonic acid (AA) and Calcium Ionophore A23187. Citric acid (2M) is used to quench the reaction. Following the addition of a trace amount of (^3 H)-5-HETE together with an excess of unlabeled 5-HETE to each tube, the mixture is extracted with chloroform/methanol. The organic layer is washed wth dilute acid and an aliquot is transferred to glass tubes and dried. The residue is dissolved in a small volume of chloroform and an aliquot is spotted on silica gel TLC sheets, which are developed with an ethyl acetate/isooctane/water/acetic acid solvent system. The 5-HETE spots are visualized with iodine, cut out and placed in scintillation vials for counting. After adjusting for the extraction efficiency, the amount (pmole) of [^14 C]-5-HETE in each of the tubes is quantitated. The net pmoles of 5-HETE are obtained by subtracting the pmoles of 5-HETE in the tubes containing buffer alone (blank) from the pmoles of 5-HETE in the tubes containing […]. The ability of the test compounds to modulate the activity of this enzyme is determined by a decrease or increase in the net amount of 5-HETE produced.

[1] = system: leukotriene C4-induced contraction of guinea pig peripheral strips; test: SRS-A antagonists (SALTI): inhibition of leukotriene C4-induced contraction of guinea pig peripheral lung strips; format: cell-based; details: 0.2 nM leukotriene C4, 37° C.; for IC50: Cavia porcellus, read-out: concentration required for 50% inhibition of leukotriene C4-induced contraction (I50)
Experimental: Peripheral strips of guinea pig lungs are prepared and hung in tissue baths (Metro #ME-5505, 10 ml) according to the published procedure (Pro. Nat'l. Acad. Sci., U.S.A. Volume 77, pp. 4354-4358, 1980). The strips are thoroughly rinsed in Assay Buffer and then connected with surgical silk thread to the support rods from the tissue baths. The rods are adjusted in the baths and the strips connected to the pressure transducers (Grass FT 103 or Gould UC-3--. The tissue baths are aerated with 95% oxygen-5% carbon dioxide and maintained at 37° C. The Assay Buffer has been made as follows:
For each liter of buffer the following are added to approximately 800 ml of water distilled in glass: 6.87 g NaCl, 0.4 g KCl, […] NaHCO3, 0.14 g NaH2 PO4 H2 O, 0.21 g MgSO4 7H2 O, and 2.0 g D-glucose. Tehn a solution of 0.368 g CaCl2 2H2 O in 100 ml glass-distilled water is slowly added to the buffer. Sufficient water is added to adjust the volume to one liter, and the solution is aerated with 95% oxygen--5% carbon dioxide. Usually 10 liters of buffer are used for an experiment with 4 tissues.
After the tissues have been repeatedly washed and allowed to equilibrate in the tissue bath, they are challenged with 1 μM histamine. After maximum contractions have been obtained, the tissues are washed, and allowed to relax back to baseline tension. This histamine challenge procedure is repeated at least 1 to 2 more times ot obtain a repeatable control response. The average response to 1 μM histamine for each tissue is used to normalize all other challenges.
Responses of each tissue to a predetermined concentration of leukotriene are then obtained. Usually test compounds are examined initially at 30 μM on resting tension of the tissues without any added agonist or antagonist to determine if the compound has any possible intrinsic activity. The tissues are washed, and the test compound is added again. Leukotriene is added after the desired pre-incubation time. The intrinsic activity of the compounds and their effect on leukotriene-induced contractions are then recorded.
The concentration required for 50% inhibition of 0.2 nM leukotriene C4 -induced contraction of guinea pig peripheral strips for the compounds of the Examples 1 to 6 is as follows: […]

| SMILES | IC50 (5-lipoxygenase) | relative activity at 10 μM (5-lipoxygenase inhibition) (5-lipoxygenase) | IC50 [1] | concentration required for 50% inhibition of leukotriene C4-induced contraction (I50) [1] |
| --- | --- | --- | --- | --- |
| O=Cc1cccn1-c1cccc(Oc2ccccc2)c1 [Example 1, 1-(3-Phenoxyphenyl)-pyrrole-2-aldehyde] |  | medium | 20 µM |  |
| O=Cc1ccn(-c2cccc(Oc3ccccc3)c2)c1 [Example 2, 1-(3-Phenoxyphenyl)-pyrrole-3-aldehyde] |  | medium | 18 µM |  |

Now from value to compound, other results behind:

| IC50 (5-lipoxygenase) | relative activity at 10 μM (5-lipoxygenase inhibition) (5-lipoxygenase) | IC50 [1] | SMILES | concentration required for 50% inhibition of leukotriene C4-induced contraction (I50) [1] |
| --- | --- | --- | --- | --- |
| 20 µM |  |  | CCCCCC(O)c1cccn1-c1ccccc1 (stereo not shown) [Example 5, 2-(1-Hydroxyhexyl)-1-phenylpyrrole] | Inactive |
|  | medium |  | CCCCCC(O)c1ccn(-c2ccccc2)c1 (stereo not shown) [Example 6, 3-(1-Hydroxyhexyl)-1-phenylpyrrole] |  |
| 4 µM |  |  | CCCCCC(O)c1ccn(-c2cccc(Oc3ccccc3)c2)c1 (stereo not shown) [Example 4, 3-(1-Hydroxyhexyl)-1-(3-phenoxyphenyl)pyrrole] |  |
| 7 µM |  |  | CCCCCC(O)c1cccn1-c1cccc(Oc2ccccc2)c1 (stereo not shown) [Example 3, 2-(1-Hydroxyhexyl)-1-(3-phenoxyphenyl)pyrrole] | Inactive |
